Reference: PubChem BioAssay AID1963841 (Molecular Pharmacology Branch, DTP, NCI, 2024)

Tested on: 439559-082-T-J2-PDC spheroid viability
Test: Anticancer human tumor 439559-082-T-J2-PDC patient-derived colon adenocarcinoma cell line growth inhibition [POLQ]
Settings: spheroids with HUVEC and MSC; for IC50: curve of first compound; for viability, T/C: stronger effect = lower value
Procedure, shortened: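 Complex spheroid viability model combining PDC tumour cells with endothelial (HUVEC) and MSC stromal cells. Novobiocin, ART-558 or RP6685 were tested singly and in combination with standard and investigational anticancer drugs. Each was titrated in half-log steps from near clinical Cmax, or from 10 microM where Cmax was unknown.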

[1] = second compound 0.0316 µM, first compound 0.0316 µM
[2] = second compound 0.0316 µM, first compound 0.1 µM
[3] = second compound 0.0316 µM, first compound 0.316 µM
[4] = second compound 0.0316 µM, first compound 1 µM
[5] = second compound 0.0316 µM, first compound 3.16 µM
[6] = second compound 0.0316 µM, first compound 10 µM
[7] = second compound 0.1 µM, first compound 0.0316 µM
[8] = second compound 0.1 µM, first compound 0.1 µM
[9] = second compound 0.1 µM, first compound 0.316 µM
[10] = second compound 0.1 µM, first compound 1 µM
[11] = second compound 0.1 µM, first compound 3.16 µM
[12] = second compound 0.1 µM, first compound 10 µM
[13] = second compound 0.316 µM, first compound 0.0316 µM
[14] = second compound 0.316 µM, first compound 0.1 µM
[15] = second compound 0.316 µM, first compound 0.316 µM
[16] = second compound 0.316 µM, first compound 1 µM
[17] = second compound 0.316 µM, first compound 3.16 µM
[18] = second compound 0.316 µM, first compound 10 µM
[19] = second compound 1 µM, first compound 0.0316 µM
[20] = second compound 1 µM, first compound 0.1 µM
[21] = second compound 1 µM, first compound 0.316 µM
[22] = second compound 1 µM, first compound 1 µM
[23] = second compound 1 µM, first compound 3.16 µM
[24] = second compound 1 µM, first compound 10 µM
[25] = second compound 3.16 µM, first compound 0.0316 µM
[26] = second compound 3.16 µM, first compound 0.1 µM
[27] = second compound 3.16 µM, first compound 0.316 µM
[28] = second compound 3.16 µM, first compound 1 µM
[29] = second compound 3.16 µM, first compound 3.16 µM
[30] = second compound 3.16 µM, first compound 10 µM
[31] = second compound 10 µM, first compound 0.0316 µM
[32] = second compound 10 µM, first compound 0.1 µM
[33] = second compound 10 µM, first compound 0.316 µM
[34] = second compound 10 µM, first compound 1 µM
[35] = second compound 10 µM, first compound 3.16 µM
[36] = second compound 10 µM, first compound 10 µM
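Note: spheroids exposed to compounds for seven days before readout.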
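Throughout, for viability, T/C: 100% = DMSO vehicle control viability.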

## COc1cc(C2c3cc4c(cc3C(OC3OC5COC(C)OC5C(O)C3O)C3COC(=O)C23)OCO4)cc(OC)c1O (stereo unspecified) + Cc1cccc(N(C)C(=O)C2C(O)CCN2c2nc(C)cc(C(F)(F)F)c2C#N)c1
Second compound 0.0316 µM
  IC50: > 10 µM
Second compound 0.1 µM
  IC50: > 10 µM
Second compound 0.316 µM
  IC50: > 10 µM
Second compound 1 µM
  IC50: > 10 µM
Second compound 3.16 µM
  IC50: > 10 µM
Second compound 10 µM
  IC50: > 10 µM
[1]
  viability, T/C: 90.7%
[2]
  viability, T/C: 99.6%
[3]
  viability, T/C: 95.6%
[4]
  viability, T/C: 95.3%
[5]
  viability, T/C: 76.8%
[6]
  viability, T/C: 68.8%
[7]
  viability, T/C: 103%
[8]
  viability, T/C: 101%
[9]
  viability, T/C: 98.1%
[10]
  viability, T/C: 89.8%
[11]
  viability, T/C: 83.4%
[12]
  viability, T/C: 79.1%
[13]
  viability, T/C: 96.9%
[14]
  viability, T/C: 92.4%
[15]
  viability, T/C: 95.2%
[16]
  viability, T/C: 88.2%
[17]
  viability, T/C: 82.1%
[18]
  viability, T/C: 69.1%
[19]
  viability, T/C: 108%
[20]
  viability, T/C: 90.8%
[21]
  viability, T/C: 93.5%
[22]
  viability, T/C: 90.4%
[23]
  viability, T/C: 84.2%
[24]
  viability, T/C: 73.4%
[25]
  viability, T/C: 90.9%
[26]
  viability, T/C: 102%
[27]
  viability, T/C: 90.8%
[28]
  viability, T/C: 83.3%
[29]
  viability, T/C: 82.1%
[30]
  viability, T/C: 70.6%
[31]
  viability, T/C: 92.4%
[32]
  viability, T/C: 82.5%
[33]
  viability, T/C: 95.4%
[34]
  viability, T/C: 86.8%
[35]
  viability, T/C: 71%
[36]
  viability, T/C: 59.9%

## C#Cc1c(F)ccc2cc(O)cc(-c3ncc4c(N5CC6CCC(C5)N6)nc(OCC56CCCN5CC(F)C6)nc4c3F)c12 (stereo unspecified) + Nc1ccc(C#CCN(C(=O)Cc2ncc(C(F)(F)F)cc2C(F)(F)F)c2ccc(F)cc2)nn1
Second compound 0.0316 µM
  IC50: > 10 µM
Second compound 0.1 µM
  IC50: > 10 µM
Second compound 0.316 µM
  IC50: > 10 µM
Second compound 1 µM
  IC50: > 10 µM
Second compound 3.16 µM
  IC50: > 10 µM
Second compound 10 µM
  IC50: > 10 µM
[1]
  viability, T/C: 94.9%
[2]
  viability, T/C: 84.2%
[3]
  viability, T/C: 71.5%
[4]
  viability, T/C: 73.7%
[5]
  viability, T/C: 71.1%
[6]
  viability, T/C: 70.2%
[7]
  viability, T/C: 103%
[8]
  viability, T/C: 77.3%
[9]
  viability, T/C: 68%
[10]
  viability, T/C: 82%
[11]
  viability, T/C: 74.5%
[12]
  viability, T/C: 54.6%
[13]
  viability, T/C: 81.3%
[14]
  viability, T/C: 87.2%
[15]
  viability, T/C: 71.9%
[16]
  viability, T/C: 69.9%
[17]
  viability, T/C: 70.6%
[18]
  viability, T/C: 64.9%
[19]
  viability, T/C: 105%
[20]
  viability, T/C: 82.7%
[21]
  viability, T/C: 62.3%
[22]
  viability, T/C: 60.9%
[23]
  viability, T/C: 75.2%
[24]
  viability, T/C: 65%
[25]
  viability, T/C: 79.9%
[26]
  viability, T/C: 84%
[27]
  viability, T/C: 68.4%
[28]
  viability, T/C: 59.1%
[29]
  viability, T/C: 60.4%
[30]
  viability, T/C: 62.7%
[31]
  viability, T/C: 92.7%
[32]
  viability, T/C: 76.9%
[33]
  viability, T/C: 76.5%
[34]
  viability, T/C: 72%
[35]
  viability, T/C: 65.2%
[36]
  viability, T/C: 66.4%

## COc1cccc2c1C(=O)c1c(O)c3c(c(O)c1C2=O)CC(O)(C(=O)CO)CC3OC1CC(N)C(O)C(C)O1 (stereo unspecified) + Nc1ccc(C#CCN(C(=O)Cc2ncc(C(F)(F)F)cc2C(F)(F)F)c2ccc(F)cc2)nn1
Second compound 0.0316 µM
  IC50: > 10 µM
Second compound 0.1 µM
  IC50: > 10 µM
Second compound 0.316 µM
  IC50: > 10 µM
Second compound 1 µM
  IC50: > 10 µM
Second compound 3.16 µM
  IC50: > 10 µM
Second compound 10 µM
  IC50: 7.09 µM
[1]
  viability, T/C: 90.2%
[2]
  viability, T/C: 83.1%
[3]
  viability, T/C: 79.2%
[4]
  viability, T/C: 67.8%
[5]
  viability, T/C: 60.7%
[6]
  viability, T/C: 60.5%
[7]
  viability, T/C: 99.9%
[8]
  viability, T/C: 98.4%
[9]
  viability, T/C: 79.8%
[10]
  viability, T/C: 66.5%
[11]
  viability, T/C: 58.9%
[12]
  viability, T/C: 65.1%
[13]
  viability, T/C: 94.7%
[14]
  viability, T/C: 82.5%
[15]
  viability, T/C: 78.7%
[16]
  viability, T/C: 59.3%
[17]
  viability, T/C: 58.1%
[18]
  viability, T/C: 66.7%
[19]
  viability, T/C: 103%
[20]
  viability, T/C: 85.5%
[21]
  viability, T/C: 74.6%
[22]
  viability, T/C: 64%
[23]
  viability, T/C: 57.2%
[24]
  viability, T/C: 55.8%
[25]
  viability, T/C: 87.5%
[26]
  viability, T/C: 83.2%
[27]
  viability, T/C: 61.2%
[28]
  viability, T/C: 62.4%
[29]
  viability, T/C: 67.2%
[30]
  viability, T/C: 57.7%
[31]
  viability, T/C: 78.8%
[32]
  viability, T/C: 74.2%
[33]
  viability, T/C: 70.8%
[34]
  viability, T/C: 59.7%
[35]
  viability, T/C: 62.6%
[36]
  viability, T/C: 45.1%
